Measured values from US12612358B2, “Resorcinol-based compounds and uses thereof” (priority 2020, dated 2026).
Where two headings read alike, the source gives them in different places.

Legend:
PANC-1 = experiment: CellTiter-Glo cell proliferation, PANC-1 pancreatic cancer cells; assay type: cell-based, human; conditions: Homo sapiens; PANC-1 (by context); read-out: IC50, inhibition of cell viability/proliferation
Description: Cell culture and treatment of pancreatic cancer cell lines: Pancreatic cancer cells lines BxPC-3, SW1990, and PANC-1 used in the experiments presented herein can be obtained from ATCC. The cells can be cultured and passaged in complete growth medium (RPMI-1640, Dulbecco's Modified Eagle Medium, or Leibovitz's L-15 medium) that has been supplemented with fetal bovine serum to a final concentration of 10%.
Effects of Compound-5B on proliferation and Id-1 expression in pancreatic cell lines. Compound-5B was next tested for inhibition of cell viability/proliferation in the three pancreatic cancer cell lines and two primary patient-derived cancer cell lines. Compound-5B inhibited cell viability/proliferation of all the cancer cell lines (Table 2). The culturing condition for the pancreatic cell lines was similar to those used in the breast cancer lines, with the exception of the primary patient-derived pancreatic cancer cell lines (PANC9 and PANC13). For determining inhibition of cell proliferation in patient-derived pancreatic cancer cells were cultured in a T75 ultra low attachment flasks with DMEM/F12 media supplemented with B27, penicillin/streptomycin (10,000 u/mL), 50 µg/mL human epidermal growth factor (hEGF), 50 μg/mL human fibroblast growth factor, and 5 μg/mL heparin. Cells were plated in a 384-well plate and incubated for three days to promote the formation of tumorspheres. Cells were then treated with Compound-5B for three days. Cell proliferation of pancreatic cells in the presence of drug was measured using the CellTiter-Glo luminescent Assay and IC50 values were calculated (Table 2). The IC50 and corresponding 95% confidence limits (CL) were calculated using non-linear regression analysis.

MDA-MB231 D3H = experiment: CellTiter-Glo viability/proliferation assay, MDA-MB231 breast cancer cells; assay type: cell-based; conditions: Homo sapiens, MDA-MB-231, 48 h, read-out: Inhibition of MDA-MB231 D3H
SKOv3 (ovarian) = experiment: Cell proliferation, SKOv3 ovarian cancer cells; assay type: cell-based; conditions: Homo sapiens, SK-OV-3, read-out: IC50 category
Description: Effects of Compound-5B on cell proliferation in additional cancer cells: To determine whether Compound-5B would have broad based anticancer activity, we study whether Compound-5B would be effective at inhibiting cell proliferation in a variety of cancers overexpressing Id-1. The assay conditions used were identical to those presented for breast and pancreatic cancers. Indeed, Compound-5B was potent at inhibiting cell proliferation in blood cancer (leukemia), glioblastoma, prostate, and ovarian cancer.

PANC-1 tumors = experiment: PANC-1 subcutaneous xenograft in athymic nu/nu mice; assay type: in vivo; conditions: PANC-1 tumor mice; Compound-5B 10 mg/kg i.p. daily, gemcitabine 50 mg/kg i.p. three times a week
[1] = CellTiter-Glo, two-day treatment

Structure (SMILES) | IC50 (MDA-MB231 D3H; [1]) [nM] | other results
C=C(C)[C@@H]1CCC(C)=C[C@H]1c1c(O)cc(CCCCC)cc1O [CBD, cannabidiol, reference compound] |  | IC50 (PANC-1): 1900 nM
CCCCCCC(C)(C)c1cc(O)c(C(=O)NC2CCCCC2)c(O)c1 [Compound 5A, N-cyclohexyl-2,6-dihydroxy-4-(2-methyloctan-2-yl)benzamide] |  | IC50 (MDA-MB231 D3H): < 500 nM
CCCCCCC(C)(C)c1cc(O)c(C(=O)Nc2ccccn2)c(O)c1 [Compound 5C, 2,6-dihydroxy-4-(2-methyloctan-2-yl)-N-(cyridin-2-yl) benzamide] | < 500 | 
CCCCCCC(C)(C)c1cc(O)c(C(=O)Nc2ccncn2)c(O)c1 [Compound 5D, 2,6-dihydroxy-4-(2-methyloctan-2-yl)-N-(pyrimidin-4-yl)benzamide] | < 500 | 
CCCCCCC(C)(C)c1cc(O)c(C(=O)N(C)c2ccccc2)c(O)c1 [Compound 5E, 2,6-dihydroxy-N-methyl-4-(2-methyloctan-2-yl)-N-phenylbenzamide] |  | IC50 (MDA-MB231 D3H): 1000 to 5000 nM; IC50 (SKOv3 (ovarian)): 500 to 1000 nM
CCCCCCC(C)(C)c1cc(O)c(C(=O)Nc2ccc(N3CCN(C)CC3)cc2)c(O)c1 [Compound 5F, 2,6-dihydroxy-4-(2-methyloctan-2-yl)-N-(4-(4-methylpiperazin-1-yl)phenyl)benzamide] | > 15000 | 
CCCCCCC(C)(C)c1cc(O)c(C(=O)Nc2cccc(N3CCN(C)CC3)c2)c(O)c1 [Compound 5G, 2,6-dihydroxy-4-(2-methyloctan-2-yl)-N-(3-(4-methylpiperazin-1-yl)phenyl)benzamide] | 1000 to 5000 | 
CCCCCCC(C)(C)c1cc(O)c(C(=O)Nc2ccccc2N2CCN(C)CC2)c(O)c1 [Compound 5H, 2,6-dihydroxy-4-(2-methyloctan-2-yl)-N-(2-(4-methylpiperazin-1-yl)phenyl)benzamide] | 500 to 1000 | 
CCCCCCC(C)(C)c1cc(O)c(C(=O)Nc2ccc(N3CCOCC3)cc2)c(O)c1 [Compound 5I, 2,6-dihydroxy-4-(2-methyloctan-2-yl)-N-(4-morpholinophenyl)benzamide] | < 500 | 
CCCCCCC(C)(C)c1cc(O)c(C(=O)Nc2cccc(N3CCOCC3)c2)c(O)c1 [Compound 5J, 2,6-dihydroxy-4-(2-methyloctan-2-yl)-N-(3-morpholinophenyl)benzamide] | < 500 | 
CCCCCCC(C)(C)c1cc(O)c(C(=O)Nc2ccccc2N2CCOCC2)c(O)c1 [Compound 5K, 2,6-dihydroxy-4-(2-methyloctan-2-yl)-N-(2-morpholinophenyl)benzamide] | < 500 | 
CCCCCc1cc(O)c(C(=O)Nc2ccccc2)c(O)c1 [Compound 11, 2,6-dihydroxy-4-pentyl-N-phenylbenzamide] | < 500 | 
CC(C)(c1ccccc1)c1cc(O)c(C(=O)NC2CCCCC2)c(O)c1 [Compound 17A, N-cyclohexyl-2,6-dihydroxy-4-(2-phenylpropan-2-yl)benzamide] |  | IC50 (MDA-MB231 D3H): 500 to 1000 nM
CC(C)(c1ccccc1)c1cc(O)c(C(=O)Nc2ccccc2)c(O)c1 [Compound 17B, 2,6-dihydroxy-N-phenyl-4-(2-phenylpropan-2-yl)benzamide] | < 500 | 
CC(C)(c1cc(O)c(C(=O)Nc2ccccc2)c(O)c1)C1CCCCC1 [Compound 17C, 4-(2-cyclohexylpropan-2-yl)-2,6-dihydroxy-N-phenylbenzamide] |  | IC50 (MDA-MB231 D3H): < 500 nM
CC(C)(c1cc(O)c(C(=O)Nc2ccccn2)c(O)c1)C1CCCCC1 [Compound 17D, 4-(2-cyclohexylpropan-2-yl)-2,6-dihydroxy-N-(pyridin-2-yl)benzamide] |  | IC50 (MDA-MB231 D3H): < 500 nM
CC(C)(CCCCN1CCOCC1)c1cc(O)c(C(=O)Nc2ccccc2)c(O)c1 [Compound 26A, 2,6-dihydroxy-4-(2-methyl-6-morpholinohexan-2-yl)-N-phenylbenzamide] | 1000 to 5000 | 
Nc1ccn([C@@H]2O[C@H](CO)[C@@H](O)C2(F)F)c(=O)n1 [gemcitabine, reference compound] |  | weight loss (metric of drug toxicity) (PANC-1 tumors): significant weight loss
